# Measured values from patent US4145557A, “(Phenoxyphenyl) alkyl acetates, propionates, and carbamates” (Eli Lilly and Company, priority 1977, dated 1979).
# Where a name gives a salt, the structure may show the parent alone.
# Tested on: ultraviolet erythema in guinea pigs
# Assay: Erythema blocking assay (anti-inflammatory activity, ultraviolet erythema, oral)
# Type: in vivo, Albino guinea pigs
# Conditions: Cavia porcellus, po, read-out: Erythema Blocking Assay Oral ED50
# Protocol: Various compounds within the scope of this invention were tested for anti-inflammatory activity in an erythema blocking assay which involved the following test procedure.
# A modification of the Winder et al. (1958) method [Winder, C. V., Wax, J., Burr, V. and Posiere, C. E.: "A Study of Pharmacological Influences on Ultraviolet Erythema in Guinea Pigs", Arch. Int. Pharmacodyn., 116, 261, 1958] was used to measure anti-inflammatory activity of these compounds. Albino guinea pigs of either sex weighing 225-300 grams were shaved on the back and chemically (NAIR®, Lotion Hair Remover, Carter Products, N. Y., N. Y.) depitated, 18-20 hours before exposure to ultraviolet light. The animals were fasted overnight. Immediately after the guinea pigs were treated with a test compound, gummed notebook paper reinforcements were placed on their backs, and they were exposed to a high intensity ultraviolet light for seven seconds. The ultraviolet light source was a Hanovia Lamp (Kromayer-Model 10) which was placed in contact with the skin of the guinea pig's back. After exposure, the reinforcements were removed and their backs wiped clean with a water soaked gauze sponge. The unexposed area under the reinforcements provided an area of contrast for grading the erythema. The animals were randomized and placed in clear plastic partitioned holders 10 × 20 cm. wide and 15 cm. high. Beginning one hour after exposure and thereafter at half-hour intervals for another one and one-half hours, the degree of resulting erythema was graded by an arbitrary scoring system based upon the degree of contrast and redness formed. Anti-inflammatory agents delay the development of the erythema and therefore have their greatest effect at the initial grading periods. Therefore, the scores were weighed by a factor of 4, 3, 2, and 1 at the 1.0-, 1.5-, 2.0-, and 2.5-hour scoring times, respectively. The erythema was graded as follows:
# Score Appearance of Exposed Area
# ______________________________________
# 0 No redness and no contrast
# 1 Slight redness with a faint reinforcement outline
# 2 Slight to moderate redness with a distinct outline
# 3 Marked redness with a distinct circular outline
# Total scores from each treatment group of five or six guinea pigs were compared to the control treatment and the percent inhibition calculated as follows:
# 100 × Control - Treatment/Control = Percent Inhibition
# Test compounds were prepared in a suspension of 1 percent methylcellulose in water and administered orally. Guinea pigs were treated orally with 1.0 cc./kg. of the suspensions. Control animals received 1.0 cc./kg. of a 1 percent methylcellulose suspension. The dose that produces a 50 percent inhibition of the erythemic response (ED50) was calculated. The ED50 results in (mg./kg.) are recorded in the following table: […]
row,Compound,ED50
1,CNCCc1cccc(Oc2ccccc2)c1.Cl [N-Methyl-2-(3-phenoxyphenyl)ethylamine hydrochloride],10 mg/kg
2,"CN(C)CCc1cccc(Oc2ccccc2)c1.Cl [N,N-Dimethyl-2-(3-phenoxyphenyl)ethylamine hydrochloride]",7 mg/kg
3,"CC(=O)Oc1ccccc1C(=O)O [A.S.A., reference compound]",50 mg/kg

# Same assay, conditions: Cavia porcellus; oral, guinea pigs, 50 percent inhibition of erythemic response; single dose in 1 percent methylcellulose, scored 1.0-2.5 hours; read-out: Erythema Blocking Assay Oral ED50
row,Compound,ED50
1,CNCC(C)c1cccc(Oc2ccccc2)c1 (stereo not drawn) [drawing 18],1 mg/kg
2,C=CCNCC(C)c1cccc(Oc2ccccc2)c1 (stereo not drawn) [drawing 24],10 mg/kg
3,CC(C(=O)N(C)C)c1cccc(Oc2ccccc2)c1 (stereo not drawn),25 mg/kg
4,CC(CO)c1cccc(Oc2ccccc2)c1 (stereo not drawn),2 mg/kg
5,CNCCC(C)c1cccc(Oc2ccccc2)c1 (stereo not drawn) [drawing 30],5 mg/kg
6,NCCc1cccc(Oc2ccccc2)c1 [CH2 CH2 NH2 . HCl],75 mg/kg
7,CNC(=O)OCC(C)c1cccc(Oc2ccccc2)c1 (stereo not drawn),40 mg/kg
8,CC(CN)c1cccc(Oc2ccccc2)c1 (stereo not drawn) [drawing 17],1 mg/kg
9,CC(C)=CCN(C)CC(C)c1cccc(Oc2ccccc2)c1 (stereo not drawn) [drawing 26],5 mg/kg
10,C=CCN(C)CC(C)c1cccc(Oc2ccccc2)c1 (stereo not drawn) [drawing 25],3 mg/kg
11,CC(CNCC1CC1)c1cccc(Oc2ccccc2)c1 (stereo not drawn),20 mg/kg
12,CC(CN(C)C)c1cccc(Oc2ccccc2)c1 (stereo not drawn) [drawing 19],8 mg/kg
13,CC(C(N)=O)c1cccc(Oc2ccccc2)c1 (stereo not drawn),3 mg/kg
14,CC(C(=O)NCC(=O)O)c1cccc(Oc2ccccc2)c1 (stereo not drawn),5 mg/kg
15,CC(=O)OCC(C)c1cccc(Oc2ccccc2)c1 (stereo not drawn),8 mg/kg
16,CC(CN(C)C1CC1)c1cccc(Oc2ccccc2)c1 (stereo not drawn) [drawing 22],3 mg/kg
17,CNC(=O)C(C)c1cccc(Oc2ccccc2)c1 (stereo not drawn),30 mg/kg
18,CC(c1cccc(Oc2ccccc2)c1)c1nnn[nH]1 (stereo not drawn) [drawing 36],10 mg/kg
19,CC(CNCCc1ccccc1)c1cccc(Oc2ccccc2)c1 (stereo not drawn),15 mg/kg
20,CC(CNC1CC1)c1cccc(Oc2ccccc2)c1 (stereo not drawn) [drawing 20],9 mg/kg
21,CC(CN(C)CCc1ccccc1)c1cccc(Oc2ccccc2)c1 (stereo not drawn) [drawing 28],5 mg/kg
22,CC(CCN)c1cccc(Oc2ccccc2)c1 (stereo not drawn) [drawing 29],2 mg/kg
23,CC(CN(C)CC1CC1)c1cccc(Oc2ccccc2)c1 (stereo not drawn) [drawing 23],3 mg/kg
24,CCC(=O)OCC(C)c1cccc(Oc2ccccc2)c1 (stereo not drawn),10 mg/kg
25,CC(C(=O)NO)c1cccc(Oc2ccccc2)c1 (stereo not drawn),2 mg/kg

# Tested on: acetic acid-induced writhing in mice
# Assay: Analgesic writhing test (inhibition of acetic acid-induced writhing)
# Type: in vivo, Standard strain albino male mice
# Conditions: Mus musculus, sc, read-out: Analgesic Writhing Test Subcutaneous ED50
# Protocol: A method similar to that reported by Koster, R., et al., "Acetic Acid for Analgesic Screening" Fed.
# Standard strain albino male mice, weighing 16-18 grams, were administered the treatments either subcutaneously or by gastric lavage. At various times after treatment, writhing was induced by the intraperitoneal administration of 60 mg./kg. of acetic acid (0.6 percent). Each treatment group consisted of 6 mice. The total number of writhes for the treatment group were counted in a 10-minute observation period starting 5 minutes after the acetic acid administration. The treatment totals were compared to controls and a percent inhibition calculated as follows:
# Percent Inhibition = 100 - (Treatment total/Control Total × 100)
# The ED50 values in the table which follows represents the doses in mg. of compound/kg. of body weight which will produce a 50 percent inhibition of the frequency of writhing.
row,Compound,ED50
1,CNCCc1cccc(Oc2ccccc2)c1.Cl [N-Methyl-2-(3-phenoxyphenyl)ethylamine hydrochloride],25 mg/kg
2,NCCc1cccc(Oc2ccccc2)c1 [CH2 CH2 NH2 . HCl],4 mg/kg
3,"CC(=O)Oc1ccccc1C(=O)O [A.S.A., reference compound]",20 mg/kg
4,CN(C)CCc1cccc(Oc2ccccc2)c1 [drawing 41],35 mg/kg

# Same assay, conditions: Mus musculus, sc; subcutaneous, mice, 50 percent inhibition of frequency of writhing; 60 mg./kg. acetic acid intraperitoneal; read-out: Analgesic Writhing Test Subcutaneous ED50
row,Compound,ED50
1,CC(CN(C)CC1CC1)c1cccc(Oc2ccccc2)c1 (stereo not drawn) [drawing 46],< 50 mg/kg
2,CNCC(C)c1cccc(Oc2ccccc2)c1 (stereo not drawn) [drawing 43],20 mg/kg
3,CCC(CNC)c1cccc(Oc2ccccc2)c1 (stereo not drawn),20 mg/kg
4,CC(CN)c1cccc(Oc2ccccc2)c1 (stereo not drawn) [drawing 42],20 mg/kg
5,CC(CN(C)C)c1cccc(Oc2ccccc2)c1 (stereo not drawn) [drawing 44],10 mg/kg

# Tested on: not listed separately
# Assay: pK'a determination
# Type: physicochemical
# Conditions: not given
row,Compound,pKa
1,CC(CN(C)CCc1ccccc1)c1cccc(Oc2ccccc2)c1 (stereo not drawn) [N-Methyl-N-(2-phenylethyl)-2-(3-phenoxyphenyl)propylamine hydrochloride],7.7
2,CC(CN(C)CC1CC1)c1cccc(Oc2ccccc2)c1 (stereo not drawn) [N-Methyl-N-cyclopropylmethyl-2-(3-phenoxyphenyl)propylamine hydrochloride],8.3
3,CNCCc1cccc(Oc2ccccc2)c1.Cl [N-Methyl-2-(3-phenoxyphenyl)ethylamine hydrochloride],9.7
4,CC(C(=O)O)c1cccc(Oc2ccccc2)c1 (stereo not drawn) [2-(3-phenoxyphenyl)propionic acid],7.3
5,O=C(O)Cc1cccc(Oc2ccccc2)c1 [2-(3-phenoxyphenyl)acetic acid],6.9
6,CC(CN(C)C1CC1)c1cccc(Oc2ccccc2)c1 (stereo not drawn) [N-Methyl-N-cyclopropyl-2-(3-phenoxyphenyl)propylamine hydrochloride],6.9
7,CC(c1cccc(Oc2ccccc2)c1)c1nnn[nH]1 (stereo not drawn) [5-(α-Methyl-3-phenoxybenzyl)-1H-tetrazole],5.8
8,CC(CCN)c1cccc(Oc2ccccc2)c1 (stereo not drawn) [3-(3-Phenoxyphenyl)butylamine hydrochloride],10
9,CNCCC(C)c1cccc(Oc2ccccc2)c1 (stereo not drawn) [N-Methyl-3-(3-phenoxyphenyl)butylamine hydrochloride],10
10,CC(C)=CCN(C)CC(C)c1cccc(Oc2ccccc2)c1 (stereo not drawn) [N-Methyl-N-(3-methylbut-2-enyl)-2-(3-phenoxyphenyl)propylamine hydrochloride],8.5
11,C=CCN(C)CC(C)c1cccc(Oc2ccccc2)c1 (stereo not drawn) [N-Methyl-N-allyl-2-(3-phenoxyphenyl)propylamine hydrochloride],7.6
12,CC(CNC1CC1)c1cccc(Oc2ccccc2)c1 (stereo not drawn) [N-Cyclopropyl-2-(3-phenoxyphenyl)propylamine hydrochloride],7.9
13,"CN(C)CCc1cccc(Oc2ccccc2)c1.Cl [N,N-Dimethyl-2-(3-phenoxyphenyl)ethylamine hydrochloride]",8.5
14,C=CCNCC(C)c1cccc(Oc2ccccc2)c1 (stereo not drawn) [N-Allyl-2-(3-phenoxyphenyl)propylamine hydrochloride],8.5
